Values joined by “and” are separate entries in the source; they are usually repeats but may differ in a detail not shown here. Identical values can stand only once. “Also recorded” adds a separate entry of the source.
How the values were obtained:
[1] = tested on: OATP1B3; conditions: read-out: IC50 for OATP1B3; cited from earlier work
[2] = biological target: T1, ABCG2 (Homo sapiens, UniProt Q9UNQ0); test: ABCG2 ATPase activity in Sf9 membrane vesicles; assay type: biochemical; set-up: purchased Solvo Biotechnology, Budapest; conditions: insect cell membrane vesicles
T1 sequence (Q9UNQ0 1-655): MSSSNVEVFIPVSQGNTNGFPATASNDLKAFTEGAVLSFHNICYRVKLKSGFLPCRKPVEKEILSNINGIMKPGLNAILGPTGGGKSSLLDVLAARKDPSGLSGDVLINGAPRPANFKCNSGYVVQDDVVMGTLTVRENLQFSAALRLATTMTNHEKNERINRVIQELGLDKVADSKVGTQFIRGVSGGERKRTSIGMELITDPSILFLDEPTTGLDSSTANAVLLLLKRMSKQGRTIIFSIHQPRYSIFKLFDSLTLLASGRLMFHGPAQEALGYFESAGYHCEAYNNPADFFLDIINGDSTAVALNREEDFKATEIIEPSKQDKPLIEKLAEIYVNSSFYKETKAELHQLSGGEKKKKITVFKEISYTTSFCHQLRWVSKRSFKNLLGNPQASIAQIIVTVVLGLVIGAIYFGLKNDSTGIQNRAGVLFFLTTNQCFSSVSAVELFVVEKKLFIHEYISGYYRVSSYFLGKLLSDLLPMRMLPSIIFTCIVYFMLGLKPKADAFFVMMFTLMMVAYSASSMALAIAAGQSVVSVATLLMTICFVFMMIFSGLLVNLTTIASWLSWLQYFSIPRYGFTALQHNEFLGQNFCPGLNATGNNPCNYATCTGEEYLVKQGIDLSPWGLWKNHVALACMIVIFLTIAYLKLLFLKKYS
Description: (§1) ATPase activity was measured in Sf9 membrane vesicles containing the respective human ABC transporters, as described in our earlier work. For ABCG2, the cholesterol level in the vesicles was increased to the level of mammalian cell membranes to obtain full activity. In brief, membrane vesicles (5 μg protein/sample) were incubated with 3 mM Mg-ATP and various concentrations of test compounds. Background ATPase activity of membranes was determined by applying the general ABC transporter inhibitor sodium orthovanadate (1 mM). Measurements were carried out for 20 min at 37 °C. The amount of phosphate liberated from ATP was detected using a colorimetric method and a VictorX3 plate reader at 660 nm Abs. Reference activators (50 µM verapamil for ABCB1 and 1 µM quercetin for ABCG2) served as positive controls.

[3] = tested on: OATP1B1; conditions: read-out: IC50 of OATP1B1; rosuvastatin transport; cited from earlier work
[4] = cited from earlier work
[5] = biological target: ABCB1 (Homo sapiens, UniProt P08183); test: ABCB1 ATPase activity in Sf9 membrane vesicles; assay type: biochemical; set-up: purchased Solvo Biotechnology, Budapest; conditions: insect cell membrane vesicles
Chain of ABCB1 (P08183 whole entry): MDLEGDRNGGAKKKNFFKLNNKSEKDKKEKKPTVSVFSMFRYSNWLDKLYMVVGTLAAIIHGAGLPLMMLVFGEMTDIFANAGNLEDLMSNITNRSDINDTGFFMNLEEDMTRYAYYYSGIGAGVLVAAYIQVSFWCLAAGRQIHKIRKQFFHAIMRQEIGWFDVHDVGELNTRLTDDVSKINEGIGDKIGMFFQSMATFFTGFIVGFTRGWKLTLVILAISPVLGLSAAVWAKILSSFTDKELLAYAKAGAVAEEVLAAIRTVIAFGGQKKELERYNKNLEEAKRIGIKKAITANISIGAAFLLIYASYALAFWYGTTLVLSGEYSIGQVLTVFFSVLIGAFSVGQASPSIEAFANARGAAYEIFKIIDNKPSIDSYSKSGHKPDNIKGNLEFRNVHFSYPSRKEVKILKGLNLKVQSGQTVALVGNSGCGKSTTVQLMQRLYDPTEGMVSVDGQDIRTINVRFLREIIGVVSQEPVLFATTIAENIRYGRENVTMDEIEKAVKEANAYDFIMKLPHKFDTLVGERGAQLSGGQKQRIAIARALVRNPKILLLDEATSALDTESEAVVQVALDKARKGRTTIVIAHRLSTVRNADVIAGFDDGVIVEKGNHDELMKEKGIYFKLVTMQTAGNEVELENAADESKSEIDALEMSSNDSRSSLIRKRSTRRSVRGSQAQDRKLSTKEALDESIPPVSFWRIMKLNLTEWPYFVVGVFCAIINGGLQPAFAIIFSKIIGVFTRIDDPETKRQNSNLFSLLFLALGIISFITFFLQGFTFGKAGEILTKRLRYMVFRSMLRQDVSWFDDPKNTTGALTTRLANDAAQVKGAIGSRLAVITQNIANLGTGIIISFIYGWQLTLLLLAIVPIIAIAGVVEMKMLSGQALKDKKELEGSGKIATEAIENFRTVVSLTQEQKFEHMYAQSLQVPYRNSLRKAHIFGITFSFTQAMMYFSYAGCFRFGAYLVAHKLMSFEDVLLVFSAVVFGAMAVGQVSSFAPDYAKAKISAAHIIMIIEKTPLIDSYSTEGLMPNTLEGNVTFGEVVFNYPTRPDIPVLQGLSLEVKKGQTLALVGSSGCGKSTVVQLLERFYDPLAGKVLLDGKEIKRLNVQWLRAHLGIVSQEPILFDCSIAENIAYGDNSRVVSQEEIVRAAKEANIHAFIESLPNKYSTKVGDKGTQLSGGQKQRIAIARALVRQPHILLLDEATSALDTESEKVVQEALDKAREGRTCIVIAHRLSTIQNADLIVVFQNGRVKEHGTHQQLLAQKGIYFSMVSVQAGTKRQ
Description: as §1

[6] = biological target: T2, ENT2 (Homo sapiens, UniProt Q14542); test: ENT2-mediated adenosine uptake in ENT2-MDCKII cells; assay type: cell-based
T2 construct: expressed in transfected cells; host or cells: MDCKII (lentiviral transduction)
T2 sequence (Q14542 1-456): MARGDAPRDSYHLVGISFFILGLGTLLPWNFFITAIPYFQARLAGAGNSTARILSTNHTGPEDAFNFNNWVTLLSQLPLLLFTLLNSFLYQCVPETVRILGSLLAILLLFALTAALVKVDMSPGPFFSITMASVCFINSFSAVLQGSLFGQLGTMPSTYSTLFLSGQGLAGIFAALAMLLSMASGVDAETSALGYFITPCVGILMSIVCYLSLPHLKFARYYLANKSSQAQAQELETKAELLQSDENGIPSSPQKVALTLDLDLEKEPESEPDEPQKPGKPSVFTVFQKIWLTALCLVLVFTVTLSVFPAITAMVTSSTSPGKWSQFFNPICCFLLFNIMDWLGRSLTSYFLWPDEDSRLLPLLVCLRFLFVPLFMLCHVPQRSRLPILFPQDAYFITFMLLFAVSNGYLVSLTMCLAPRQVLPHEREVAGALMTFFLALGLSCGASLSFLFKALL
Description: ENT and CNT transporter interactions were investigated in transporter-overexpressing cell lines. Madin-Darby Canine Kidney II (MDCKII) cell lines overexpressing the human uptake transporters CNT1, CNT2, ENT1, and ENT2 were generated via lentiviral transduction. Cell cultures were maintained in Dulbecco’s modified Eagle’s medium (DMEM) and 4500 mg/L of glucose supplemented with GlutaMax^TM, 10% v/v fetal bovine serum (FBS), 100 units/mL penicillin, and 100 µg/mL streptomycin (all from Gibco/ThermoFisher, Waltham, MA, USA) at 37 °C in 5% CO2 at 95% humidity. For uptake inhibition assays, transporter-expressing cells and mock-transduced control cells were seeded on 96-well tissue culture plates at a density of 1 × 10^5 cells/well. […] To determine the amounts of accumulated radiolabeled substrates, cell lysates mixed with a liquid scintillation cocktail were measured with a MicroBeta2 microplate counter (PerkinElmer, Singapore).
Transporter-specific accumulation of the probe substrate was calculated using the following formula: ACCSpec = ACCTRP − ACCMock, where ACCTRP is the accumulation of the probe in transporter-expressing cells and ACCMock is the accumulation of the probe in control cells. Relative transporter-specific accumulation values were calculated as percentages of the control value (with vehicle only).

SMILES | IC50 [1] | effect on ATPase activity of ABCG2 [2] | IC50 [3] | plasma peak concentration ([4]; Paxlovid 300 mg Nirmatrelvir and 100 mg Ritonavir twice daily, listed as NIR) | observed plasma concentrations ([4]; recommended clinical dose of Paxlovid) | effect on transport-coupled ATPase activity of ABCB1 [5] | inhibition of adenosine uptake by ENT2 [6]
CC(C)(C)[C@H](NC(=O)C(F)(F)F)C(=O)N1C[C@H]2[C@@H]([C@H]1C(=O)N[C@H](C#N)C[C@@H]1CCNC1=O)C2(C)C [Nirmatrelvir] | […] | no such effect | […] | […] | […] | significantly increased; also recorded: stimulated | –
CC(C)C(=O)OC[C@H]1O[C@@H](n2ccc(NO)nc2=O)[C@H](O)[C@@H]1O [EIDD-2801, Molnupiravir] | – | – | – | – | – | – | only mildly inhibited

— article PMC10379611 (International Journal of Molecular Sciences, 2023)
